“And” between values parts separate entries of the source, which are not always exact repeats. Equal entries are not always repeated. Numbers after ± are expanded uncertainties.
Columns and labels:
[1] = for vapor or sublimation pressure: Closed cell (Static) method; for Normal melting temperature: DTA
[2] = Molar enthalpy of transition or fusion; conditions: Crystal; DSC

Cn1cccn1 [1-methyl-1H-pyrazole]
[1], Liquid
Conditions	vapor or sublimation pressure [kPa]
253.9 K	0.0681 ± 0.0014
255.85 K	0.08089 ± 0.0016
257.81 K	0.0948 ± 0.0018
260.03 K	0.1138 ± 0.0021
261.7 K	0.1308 ± 0.002
263.65 K	0.1508 ± 0.0022
265.63 K	0.1755 ± 0.0024
267.62 K	0.2033 ± 0.0026
269.55 K	0.2358 ± 0.0029
271.5 K	0.2714 ± 0.0032
273.47 K	0.3111 ± 0.0035
275.47 K	0.3597 ± 0.0039
277.42 K	0.4115 ± 0.0044
279.4 K	0.4704 ± 0.0049
281.39 K	0.539 ± 0.0055
283.35 K	0.6108 ± 0.0061
285.3 K	0.6958 ± 0.0069
287.32 K	0.7878 ± 0.0077
289.32 K	0.893 ± 0.0086
291.27 K	1.01 ± 0.01
293.27 K	1.147 ± 0.011

Conditions	Normal melting temperature [°C]
[1], Crystal	-43.9 ± 0.4

Conditions	Molar enthalpy of transition or fusion [kcal/mol]
[2]	2.72 ± 0.0956

Cn1cnc2ccccc21 [1-methylbenzimidazole]
[1]
Conditions	vapor or sublimation pressure
301.22 K, Crystal	0.00026 ± 0.00011 kPa
303.14 K, Crystal	0.00033 ± 0.00011 kPa
303.16 K, Liquid	0.00051 ± 0.00011 kPa
305.14 K, Crystal	0.00042 ± 0.00011 kPa
305.18 K, Crystal	0.00041 ± 0.00011 kPa
305.2 K, Liquid	0.00062 ± 0.00011 kPa
307.12 K, Liquid	0.00074 ± 0.00011 kPa
307.14 K, Crystal	0.00051 ± 0.00011 kPa
309.1 K, Liquid	0.00089 ± 0.00011 kPa
309.11 K, Crystal	0.00063 ± 0.00011 kPa
311.07 K, Crystal	0.00078 ± 0.00011 kPa
311.09 K, Liquid	0.00107 ± 0.00012 kPa
313.09 K, Crystal	0.00097 ± 0.00012 kPa
313.12 K, Liquid	0.00128 ± 0.00012 kPa
315.09 K, Liquid	0.00153 ± 0.00012 kPa
315.1 K, Crystal	0.00119 ± 0.00012 kPa
317.04 K, Liquid	0.00182 ± 0.00013 kPa
317.06 K, Crystal	0.00146 ± 0.00012 kPa
319.03 K, Crystal	0.00178 ± 0.00013 kPa
319.07 K, Liquid	0.00217 ± 0.00014 kPa
321.01 K, Liquid	0.00255 ± 0.00015 kPa
321.02 K, Crystal	0.00217 ± 0.00014 kPa
322.97 K, Crystal	0.00264 ± 0.00015 kPa
322.99 K, Liquid	0.00304 ± 0.00016 kPa
325.01 K, Crystal	0.00324 ± 0.00017 kPa
327 K, Crystal	0.00392 ± 0.00019 kPa
328.91 K, Crystal	0.00473 ± 0.00022 kPa
332.95 K, Liquid	0.00656 ± 0.00028 kPa
334.92 K, Liquid	0.00759 ± 0.00032 kPa
336.91 K, Liquid	0.0089 ± 0.00037 kPa
336.92 K, Liquid	0.00896 ± 0.00037 kPa
338.9 K, Liquid	0.01031 ± 0.00042 kPa
340.86 K, Liquid	0.01187 ± 0.00048 kPa
340.87 K, Liquid	0.01203 ± 0.00048 kPa
342.88 K, Liquid	0.01375 ± 0.00053 kPa
344.83 K, Liquid	0.01603 ± 0.00056 kPa and 0.01591 ± 0.00056 kPa
346.81 K, Liquid	0.01835 ± 0.0006 kPa
348.79 K, Liquid	0.02107 ± 0.00064 kPa
350.76 K, Liquid	0.02401 ± 0.00068 kPa
352.73 K, Liquid	0.02767 ± 0.00074 kPa and 0.02759 ± 0.00074 kPa
354.7 K, Liquid	0.03132 ± 0.0008 kPa
356.69 K, Liquid	0.03607 ± 0.00087 kPa
358.67 K, Liquid	0.04098 ± 0.00095 kPa
360.63 K, Liquid	0.04632 ± 0.001 kPa
362.6 K, Liquid	0.05225 ± 0.0011 kPa
364.59 K, Liquid	0.05898 ± 0.0012 kPa
366.55 K, Liquid	0.06653 ± 0.0013 kPa
368.53 K, Liquid	0.07509 ± 0.0015 kPa
370.5 K, Liquid	0.08443 ± 0.0016 kPa
372.49 K, Liquid	0.09469 ± 0.0018 kPa

Conditions	Normal melting temperature [°C]
[1], Crystal	56.1 ± 0.4

Conditions	Molar enthalpy of transition or fusion [kcal/mol]
[2]	3.32 ± 0.0956

Cn1ccc2ccccc21 [1-methylindole]
[1]
Conditions	vapor or sublimation pressure [kPa]
267.62 K, Crystal	0.00033 ± 0.0001
268.58 K, Liquid	0.00043 ± 0.0001
268.6 K, Crystal	0.00037 ± 0.0001
269.57 K, Crystal	0.00042 ± 0.0001
270.55 K, Crystal	0.00048 ± 0.0001
270.56 K, Liquid	0.00054 ± 0.0001
271.57 K, Crystal	0.00054 ± 0.0001
272.5 K, Liquid	0.00066 ± 0.0001
272.52 K, Crystal	0.0006 ± 0.0001
273.51 K, Crystal	0.00068 ± 0.0001
274.48 K, Liquid	0.00081 ± 0.0001
274.5 K, Crystal	0.00077 ± 0.0001
275.47 K, Crystal	0.00086 ± 0.0001
276.45 K, Liquid	0.00097 ± 0.0001
278.42 K, Liquid	0.0012 ± 0.00011
280.39 K, Liquid	0.00145 ± 0.00011
282.35 K, Liquid	0.00176 ± 0.00012
284.36 K, Liquid	0.00211 ± 0.00013
286.31 K, Liquid	0.00252 ± 0.00014
288.32 K, Liquid	0.00302 ± 0.00015
290.27 K, Liquid	0.00358 ± 0.00017
290.29 K, Liquid	0.00359 ± 0.00017
292.29 K, Liquid	0.00431 ± 0.0002
294.24 K, Liquid	0.00507 ± 0.00022
296.28 K, Liquid	0.00607 ± 0.00026
298.2 K, Liquid	0.0071 ± 0.0003
300.25 K, Liquid	0.00844 ± 0.00035
302.2 K, Liquid	0.00987 ± 0.0004
304.21 K, Liquid	0.01167 ± 0.00047
306.16 K, Liquid	0.01359 ± 0.00052
308.14 K, Liquid	0.0158 ± 0.00056
310.17 K, Liquid	0.01854 ± 0.0006
312.14 K, Liquid	0.02149 ± 0.00064
314.11 K, Liquid	0.02521 ± 0.0007
316.14 K, Liquid	0.029 ± 0.00076
318.06 K, Liquid	0.03354 ± 0.00083
320.05 K, Liquid	0.03839 ± 0.00091
322.02 K, Liquid	0.0445 ± 0.001
324.04 K, Liquid	0.05044 ± 0.0011
326.02 K, Liquid	0.05848 ± 0.0012
327.98 K, Liquid	0.06647 ± 0.0013
329.95 K, Liquid	0.07637 ± 0.0015
331.91 K, Liquid	0.08658 ± 0.0016
333.89 K, Liquid	0.09881 ± 0.0018
335.91 K, Liquid	0.1114 ± 0.002
337.89 K, Liquid	0.1263 ± 0.0023
339.81 K, Liquid	0.1424 ± 0.0021
341.9 K, Liquid	0.1624 ± 0.0023

Conditions	Normal melting temperature [°C]
[1], Crystal	3.4 ± 0.4

Conditions	Molar enthalpy of transition or fusion [kcal/mol]
[2]	2.61 ± 0.0956

Reference: the NIST ThermoML archive (doi:10.1016/j.jct.2014.04.026)
